Calls of active or inactive are those of the source. No cut-off for these calls is given here.
Columns and labels:
Vero = assay: Cytotoxicity in African green monkey Vero cells assessed as reduction in cell viability incubated for 72 hrs by MTT assay; format: cell-based; conditions: Chlorocebus sabaeus
CAPAN-1 = assay: Cytotoxicity in human CAPAN-1 cells assessed as reduction in cell viability incubated for 72 hrs by MTT assay; format: functional, cell-based; conditions: CAPAN-1, 72 h
[1] = Inhibition of N-terminal His9-tagged Methanocaldococcus jannaschii DSM 2661 AglH incubated for 2 hrs using UDP-GlcN-Cg-FITC and alpha-dihydroundecap-renyl phosphate by reversed-phase HPLC analysis
HCT-116 = assay: Cytotoxicity in human HCT-116 cells assessed as reduction in cell viability incubated for 72 hrs by MTT assay; format: functional, cell-based; conditions: HCT-116, 72 h
[2] = molecular target: T1, UDP-N-acetylglucosamine--dolichyl-phosphate N-acetylglucosaminephosphotransferase (Homo sapiens, UniProt Q9H3H5); assay: Inhibition of human DPAGT1 expressed in HEK293 (Expi293) cells incubated for 2 hrs using UDP-GlcN-Cg-FITC and alpha-dihydroundecap-renyl phosphate by reversed-phase HPLC analysis; format: cell-based
T1 sequence (Q9H3H5 whole entry): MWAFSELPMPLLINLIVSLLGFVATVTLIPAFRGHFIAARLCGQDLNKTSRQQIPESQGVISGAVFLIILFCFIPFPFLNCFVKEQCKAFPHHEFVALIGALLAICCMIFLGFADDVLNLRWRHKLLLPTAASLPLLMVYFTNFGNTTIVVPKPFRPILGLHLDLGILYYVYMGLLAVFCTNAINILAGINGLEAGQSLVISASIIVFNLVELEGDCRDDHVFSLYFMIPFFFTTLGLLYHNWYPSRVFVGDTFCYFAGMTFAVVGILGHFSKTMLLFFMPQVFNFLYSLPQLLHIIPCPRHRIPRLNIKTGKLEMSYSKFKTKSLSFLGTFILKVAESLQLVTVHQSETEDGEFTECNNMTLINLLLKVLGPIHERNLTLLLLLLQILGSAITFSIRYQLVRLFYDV

ASPC1 = assay: Cytotoxicity in human ASPC1 cells assessed as reduction in cell viability incubated for 72 hrs by MTT assay; format: functional, cell-based; conditions: ASPC1, 72 h
[3] = Cytotoxicity in mouse L1210 cells assessed as reduction in cell viability incubated for 72 hrs by MTT assay; conditions: L1210, 72 h
[4] = Inhibition of Escherichia coli WecA incubated for 2 hrs using UDP-Glucosamine-C6-FITC substrate by reversed-phase HPLC analysis; parameters: species or system Escherichia coli BL21
DLD-1 = assay: Cytotoxicity in human DLD-1 cells assessed as reduction in cell viability incubated for 72 hrs by MTT assay; format: functional, cell-based; conditions: DLD-1, 72 h
[5] = Cytotoxicity in human PD002 cells assessed as reduction in cell viability incubated for 72 hrs by MTT assay; format: functional, cell-based; conditions: PD002, 72 h
SiHa = assay: Cytotoxicity in human SiHa cells assessed as reduction in cell viability incubated for 72 hrs by MTT assay; format: functional, cell-based
[6] = Inhibition of N-terminal 6x-His-tagged Hydrogenivirga-sp. 128-5-R1-1 MraY expressed in Escherichia coli NiCo21(DE3) incubated for 2 hrs by reversed-phase HPLC analysis
PANC-1 = assay: Cytotoxicity in human PANC-1 cells assessed as reduction in cell viability incubated for 72 hrs by MTT assay; format: functional, cell-based; conditions: PANC-1, 72 h
[7] = Cytotoxicity in human hTERT-HPNE cells assessed as reduction in cell viability incubated for 72 hrs by MTT assay; format: cell-based
KB = assay: Cytotoxicity in human KB cells assessed as reduction in cell viability incubated for 72 hrs by MTT assay; format: functional, cell-based
[8] = Inhibition of Mycobacterium tuberculosis WecA by fluorescence based assay
[9] = Inhibition of Mycobacterium tuberculosis WecA
PD002 = assay: Inhibition of cell migration in human PD002 cells at 0.1 uM incubated for 0.5 hrs by crystal violet staining based Boyden chamber assay; format: functional

Compound | IC50 [1] | IC50 [2] | IC50 [4] | IC50 [6] | other results
CO[C@H]1[C@@H](O)[C@H](n2ccc(=O)[nH]c2=O)O[C@@H]1[C@@H](O[C@H]1OC(C(=O)N[C@H]2CCCCNC2=O)=C[C@H](O)[C@@H]1O)C(N)=O [CAPURAMYCIN] | > 50 µM | > 50 µM | > 50 µM | 0.13 µM | IC50 (Vero): > 50 µM; IC50 (CAPAN-1): > 50 µM; IC50 (HCT-116): > 50 µM; IC50 (ASPC1): > 50 µM; IC50 [3]: > 50 µM; IC50 (DLD-1): > 50 µM; IC50 [5]: > 50 µM; IC50 (SiHa): > 50 µM; IC50 (PANC-1): > 50 µM; IC50 [7]: > 50 µM; IC50 (KB): > 50 µM
NC(=O)[C@H](O[C@H]1OC(C(=O)N[C@H]2CCCCNC2=O)=C[C@H](O)[C@@H]1O)[C@H]1O[C@@H](n2ccc(=O)[nH]c2=O)[C@H](O)[C@@H]1O | > 50 µM | > 50 µM | 35 µM | > 50 µM | 
NC(=O)[C@H](O[C@H]1OC(C(=O)NCc2ccc(N3CCC(Oc4ccc(OC(F)(F)F)cc4)CC3)cc2)=C[C@H](O)[C@@H]1O)[C@H]1O[C@@H](n2ccc(=O)[nH]c2=O)[C@H](O)[C@@H]1O | > 50 µM | > 50 µM | 30 µM | > 50 µM | 
CO[C@H]1[C@@H](O)[C@H](n2ccc(=O)[nH]c2=O)O[C@@H]1[C@@H](O[C@H]1OC(CNCc2ccc(N3CCC(Oc4ccc(OC(F)(F)F)cc4)CC3)cc2)=C[C@H](O)[C@@H]1O)C(N)=O | > 50 µM | > 50 µM | > 50 µM | > 50 µM | 
NC[C@H]1O[C@@H](O[C@H]([C@H]2O[C@@H](n3ccc(=O)[nH]c3=O)[C@H](O)[C@@H]2O)[C@H](NCCCC(=O)NCc2ccc(N3CCC(Oc4ccc(OC(F)(F)F)cc4)CC3)cc2)C(N)=O)[C@H](O)[C@@H]1O | 0.01 µM | 0.01 µM | 0.01 µM | 0.01 µM | 
CO[C@@H]1[C@H](O)[C@@H]([C@@H](O[C@H]2OC(C(=O)N[C@H]3CCCCNC3=O)=C[C@H](O)[C@@H]2O)C(N)=O)O[C@H]1n1ccc(=O)[nH]c1=O | 20 µM | 11.5 µM | 30 µM | 8.5 µM | 
CO[C@H]1[C@@H](OC)[C@H](n2ccc(=O)[nH]c2=O)O[C@@H]1[C@@H](O[C@H]1OC(C(=O)NCc2ccc(N3CCC(Oc4ccc(OC(F)(F)F)cc4)CC3)cc2)=C[C@H](O)[C@@H]1O)C(N)=O | 30 µM | 20 µM | 10 µM | 5 µM | 
CO[C@H]1[C@@H](OC)[C@H](n2ccc(=O)[nH]c2=O)O[C@@H]1[C@@H](O[C@H]1OC(C(=O)N[C@H]2CCCCNC2=O)=C[C@H](O)[C@@H]1O)C(N)=O | 2.5 µM | 4.5 µM | 0.06 µM | > 50 µM | IC50 (Vero): > 50 µM; IC50 (CAPAN-1): > 50 µM; IC50 (HCT-116): > 50 µM; IC50 [8]: 0.06 µM; IC50 (ASPC1): > 50 µM; IC50 [3]: > 50 µM; IC50 (DLD-1): > 50 µM; IC50 [5]: > 50 µM; IC50 (SiHa): > 50 µM; IC50 (PANC-1): > 50 µM; IC50 [7]: > 50 µM; IC50 (KB): > 50 µM
CO[C@@H]1[C@H](O)[C@@H]([C@@H](O[C@H]2OC(CNCc3ccc(N4CCC(Oc5ccc(OC(F)(F)F)cc5)CC4)cc3)=C[C@H](O)[C@@H]2O)C(N)=O)O[C@H]1n1ccc(=O)[nH]c1=O | > 50 µM | > 50 µM | > 50 µM | > 50 µM | 
CCCCc1ccc(NC(=O)C2=CCN(C)[C@@H]([C@H](O[C@@H]3O[C@H](CN)[C@@H](O)[C@H]3O)[C@H]3O[C@@H](n4ccc(=O)[nH]c4=O)[C@H](O)[C@@H]3O)C(=O)N2C)cc1 |  |  |  |  | IC50 [9]: 0.084 µM
Nc1ccn([C@@H]2O[C@H](CO)[C@@H](O)C2(F)F)c(=O)n1 |  |  |  |  | inhibition (PD002): Active
CO[C@@H]1[C@H](O)[C@@H]([C@@H](O[C@H]2OC(C(=O)NCc3ccc(N4CCC(Oc5ccc(OC(F)(F)F)cc5)CC4)cc3)=C[C@H](O)[C@@H]2O)C(N)=O)O[C@H]1n1ccc(=O)[nH]c1=O | 15 µM |  | 20 µM | > 50 µM | IC50 (Vero): > 50 µM; IC50 (CAPAN-1): 40 µM; IC50 (HCT-116): 25 µM; IC50 (ASPC1): 30 µM; IC50 [3]: > 50 µM; IC50 (DLD-1): 35 µM; IC50 [5]: 50 µM; IC50 (SiHa): 25 µM; IC50 (PANC-1): 45 µM; IC50 [7]: > 50 µM; IC50 (KB): 35 µM

Source: ChEMBL document CHEMBL4699480 (J Med Chem, 2020)
